# Test results taken from PMC5513037, “Examining the influence of specificity ligands and ATP-competitive ligands on the overall effectiveness of bivalent kinase inhibitors” (Proteome Science, 2017).
# Tests used:
# Test in all cases: KAM-matrix competition in K562 lysate;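 as to 0.001 uM KAM: median log10 fold change of treatment over DMSO control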;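 as to 0.01 uM KAM: median log10 fold change of treatment over DMSO control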;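 as to 0.1 uM KAM: median log10 fold change of treatment over DMSO control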;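 as to 1 uM KAM: median log10 fold change of treatment over DMSO control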;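 as to 10 uM KAM: median log10 fold change of treatment over DMSO control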
# Type in all cases: binding
# [1] = target: T1, ADRBK1 (Homo sapiens, UniProt P25098);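 as to 0.001 uM KAM: median log10 fold change of treatment over DMSO control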;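 as to 0.01 uM KAM: median log10 fold change of treatment over DMSO control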;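 as to 0.1 uM KAM: median log10 fold change of treatment over DMSO control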;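 as to 1 uM KAM: median log10 fold change of treatment over DMSO control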;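 as to 10 uM KAM: median log10 fold change of treatment over DMSO control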
# T1 construct: endogenous in cells; host or cells: K562
# T1 sequence (P25098 1-689): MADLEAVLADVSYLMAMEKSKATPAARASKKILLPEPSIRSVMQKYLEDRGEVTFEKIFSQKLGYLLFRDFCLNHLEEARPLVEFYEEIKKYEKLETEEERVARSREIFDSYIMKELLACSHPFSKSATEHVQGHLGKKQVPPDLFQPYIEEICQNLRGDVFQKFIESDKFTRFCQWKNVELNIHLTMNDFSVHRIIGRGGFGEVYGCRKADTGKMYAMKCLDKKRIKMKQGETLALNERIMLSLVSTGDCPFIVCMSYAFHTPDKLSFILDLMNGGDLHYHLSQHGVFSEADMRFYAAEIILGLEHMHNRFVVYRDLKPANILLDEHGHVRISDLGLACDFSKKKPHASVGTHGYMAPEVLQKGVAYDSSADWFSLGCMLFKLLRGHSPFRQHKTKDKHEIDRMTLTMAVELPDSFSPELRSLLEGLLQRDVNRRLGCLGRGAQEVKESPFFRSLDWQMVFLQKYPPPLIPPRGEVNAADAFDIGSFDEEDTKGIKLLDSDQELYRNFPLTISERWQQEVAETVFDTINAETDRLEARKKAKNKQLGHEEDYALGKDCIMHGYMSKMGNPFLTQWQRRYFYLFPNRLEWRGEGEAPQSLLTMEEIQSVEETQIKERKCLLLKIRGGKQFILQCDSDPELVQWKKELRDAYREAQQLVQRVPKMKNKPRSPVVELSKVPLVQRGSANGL
# Description: (§1) Supplement 12953_2017_125_MOESM1_ESM.zip/MS_Supp Info.xlsx, sheet "KAM" | column: 10 uM KAM; 1 uM KAM; 0.1 uM KAM; 0.01 uM KAM; 0.001 uM KAM; RB50
# [2] = target: T2, CDC42BPA (Homo sapiens, UniProt Q5VT25);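 as to 0.001 uM KAM: median log10 fold change of treatment over DMSO control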;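 as to 0.01 uM KAM: median log10 fold change of treatment over DMSO control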;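 as to 0.1 uM KAM: median log10 fold change of treatment over DMSO control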;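 as to 1 uM KAM: median log10 fold change of treatment over DMSO control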;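 as to 10 uM KAM: median log10 fold change of treatment over DMSO control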
# T2 construct: endogenous in cells; host or cells: K562
# T2 sequence (Q5VT25 whole entry): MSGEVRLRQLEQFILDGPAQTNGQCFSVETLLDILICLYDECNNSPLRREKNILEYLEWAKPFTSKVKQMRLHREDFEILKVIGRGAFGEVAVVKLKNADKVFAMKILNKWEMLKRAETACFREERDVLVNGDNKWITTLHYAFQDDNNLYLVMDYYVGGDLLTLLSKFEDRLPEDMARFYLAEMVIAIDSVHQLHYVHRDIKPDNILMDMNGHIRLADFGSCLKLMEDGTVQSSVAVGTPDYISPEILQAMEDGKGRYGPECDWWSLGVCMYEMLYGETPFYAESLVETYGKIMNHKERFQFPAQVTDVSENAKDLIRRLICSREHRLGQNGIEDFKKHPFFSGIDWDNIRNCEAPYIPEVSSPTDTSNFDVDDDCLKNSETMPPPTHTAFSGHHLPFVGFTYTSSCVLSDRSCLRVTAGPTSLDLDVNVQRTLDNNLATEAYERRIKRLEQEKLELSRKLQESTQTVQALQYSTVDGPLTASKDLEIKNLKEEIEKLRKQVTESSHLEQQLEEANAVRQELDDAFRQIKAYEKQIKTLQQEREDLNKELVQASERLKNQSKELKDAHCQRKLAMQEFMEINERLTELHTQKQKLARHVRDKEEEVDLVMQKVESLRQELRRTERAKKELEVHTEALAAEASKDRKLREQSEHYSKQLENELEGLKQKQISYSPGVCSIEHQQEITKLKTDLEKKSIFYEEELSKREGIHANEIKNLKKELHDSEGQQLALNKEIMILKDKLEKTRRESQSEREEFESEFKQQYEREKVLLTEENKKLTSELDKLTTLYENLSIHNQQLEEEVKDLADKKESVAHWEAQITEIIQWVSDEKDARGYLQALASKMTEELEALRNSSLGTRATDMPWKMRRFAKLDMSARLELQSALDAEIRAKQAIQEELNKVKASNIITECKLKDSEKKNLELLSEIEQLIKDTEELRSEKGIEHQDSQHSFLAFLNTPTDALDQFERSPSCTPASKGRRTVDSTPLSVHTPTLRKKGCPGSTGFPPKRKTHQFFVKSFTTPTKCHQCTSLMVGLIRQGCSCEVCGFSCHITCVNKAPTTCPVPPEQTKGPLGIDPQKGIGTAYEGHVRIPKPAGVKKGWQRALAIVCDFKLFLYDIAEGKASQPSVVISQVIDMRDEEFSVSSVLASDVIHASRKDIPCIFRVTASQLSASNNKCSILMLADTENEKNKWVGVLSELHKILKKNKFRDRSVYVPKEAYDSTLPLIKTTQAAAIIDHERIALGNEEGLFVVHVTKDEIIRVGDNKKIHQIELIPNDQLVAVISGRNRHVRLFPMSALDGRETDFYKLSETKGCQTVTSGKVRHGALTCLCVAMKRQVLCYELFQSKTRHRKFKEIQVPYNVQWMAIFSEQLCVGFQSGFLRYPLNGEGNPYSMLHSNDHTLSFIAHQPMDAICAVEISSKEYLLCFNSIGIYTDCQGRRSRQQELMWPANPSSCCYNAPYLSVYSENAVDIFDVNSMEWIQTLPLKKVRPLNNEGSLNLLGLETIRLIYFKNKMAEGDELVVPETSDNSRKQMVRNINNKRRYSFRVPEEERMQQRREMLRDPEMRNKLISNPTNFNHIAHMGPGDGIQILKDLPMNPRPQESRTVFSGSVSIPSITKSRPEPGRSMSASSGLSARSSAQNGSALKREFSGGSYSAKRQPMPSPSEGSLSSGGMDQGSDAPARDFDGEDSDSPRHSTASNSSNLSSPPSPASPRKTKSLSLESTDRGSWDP
# Description: as §1
# [3] = target: T3, HIPK2 (Homo sapiens, UniProt Q9H2X6)
# T3 construct: endogenous in cells; host or cells: K562 cell lysate
# T3 sequence (Q9H2X6 whole entry): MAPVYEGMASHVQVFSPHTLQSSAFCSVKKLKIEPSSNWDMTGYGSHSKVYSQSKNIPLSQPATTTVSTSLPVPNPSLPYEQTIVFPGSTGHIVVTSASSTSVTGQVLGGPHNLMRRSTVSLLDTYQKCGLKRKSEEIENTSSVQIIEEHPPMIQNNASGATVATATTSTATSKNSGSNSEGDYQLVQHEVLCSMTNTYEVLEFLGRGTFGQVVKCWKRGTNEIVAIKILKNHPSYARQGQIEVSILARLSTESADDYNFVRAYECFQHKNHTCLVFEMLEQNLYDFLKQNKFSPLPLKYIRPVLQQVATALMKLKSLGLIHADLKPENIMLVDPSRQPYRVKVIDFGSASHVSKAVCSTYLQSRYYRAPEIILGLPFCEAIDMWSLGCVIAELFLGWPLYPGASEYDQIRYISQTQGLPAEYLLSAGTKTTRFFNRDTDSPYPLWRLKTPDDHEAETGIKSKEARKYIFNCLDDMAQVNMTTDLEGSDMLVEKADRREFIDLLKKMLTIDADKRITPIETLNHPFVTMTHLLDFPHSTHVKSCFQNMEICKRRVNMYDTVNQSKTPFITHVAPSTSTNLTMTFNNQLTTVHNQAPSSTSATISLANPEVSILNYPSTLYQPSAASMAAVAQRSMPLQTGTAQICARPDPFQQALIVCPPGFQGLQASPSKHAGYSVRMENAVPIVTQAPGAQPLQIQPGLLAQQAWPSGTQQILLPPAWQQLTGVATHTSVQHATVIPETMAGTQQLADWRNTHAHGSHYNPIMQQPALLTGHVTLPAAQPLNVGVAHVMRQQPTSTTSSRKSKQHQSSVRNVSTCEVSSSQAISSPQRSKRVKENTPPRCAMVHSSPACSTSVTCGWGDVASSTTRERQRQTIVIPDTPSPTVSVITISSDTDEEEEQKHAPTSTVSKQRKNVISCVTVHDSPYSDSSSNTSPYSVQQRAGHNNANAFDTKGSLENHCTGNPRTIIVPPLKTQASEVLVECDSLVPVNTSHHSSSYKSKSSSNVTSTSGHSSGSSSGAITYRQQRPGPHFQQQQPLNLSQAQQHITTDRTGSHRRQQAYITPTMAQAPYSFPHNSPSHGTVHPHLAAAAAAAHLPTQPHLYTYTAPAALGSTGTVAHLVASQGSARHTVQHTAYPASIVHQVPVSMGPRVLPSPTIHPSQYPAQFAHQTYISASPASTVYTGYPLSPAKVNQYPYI
# Description: as §1
# [4] = target: T4, TAOK2 (Homo sapiens, UniProt Q9UL54);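 as to 0.001 uM KAM: median log10 fold change of treatment over DMSO control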;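 as to 0.01 uM KAM: median log10 fold change of treatment over DMSO control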;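 as to 0.1 uM KAM: median log10 fold change of treatment over DMSO control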;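 as to 1 uM KAM: median log10 fold change of treatment over DMSO control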;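 as to 10 uM KAM: median log10 fold change of treatment over DMSO control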
# T4 construct: endogenous in cells; host or cells: K562
# T4 sequence (Q9UL54 1-1235): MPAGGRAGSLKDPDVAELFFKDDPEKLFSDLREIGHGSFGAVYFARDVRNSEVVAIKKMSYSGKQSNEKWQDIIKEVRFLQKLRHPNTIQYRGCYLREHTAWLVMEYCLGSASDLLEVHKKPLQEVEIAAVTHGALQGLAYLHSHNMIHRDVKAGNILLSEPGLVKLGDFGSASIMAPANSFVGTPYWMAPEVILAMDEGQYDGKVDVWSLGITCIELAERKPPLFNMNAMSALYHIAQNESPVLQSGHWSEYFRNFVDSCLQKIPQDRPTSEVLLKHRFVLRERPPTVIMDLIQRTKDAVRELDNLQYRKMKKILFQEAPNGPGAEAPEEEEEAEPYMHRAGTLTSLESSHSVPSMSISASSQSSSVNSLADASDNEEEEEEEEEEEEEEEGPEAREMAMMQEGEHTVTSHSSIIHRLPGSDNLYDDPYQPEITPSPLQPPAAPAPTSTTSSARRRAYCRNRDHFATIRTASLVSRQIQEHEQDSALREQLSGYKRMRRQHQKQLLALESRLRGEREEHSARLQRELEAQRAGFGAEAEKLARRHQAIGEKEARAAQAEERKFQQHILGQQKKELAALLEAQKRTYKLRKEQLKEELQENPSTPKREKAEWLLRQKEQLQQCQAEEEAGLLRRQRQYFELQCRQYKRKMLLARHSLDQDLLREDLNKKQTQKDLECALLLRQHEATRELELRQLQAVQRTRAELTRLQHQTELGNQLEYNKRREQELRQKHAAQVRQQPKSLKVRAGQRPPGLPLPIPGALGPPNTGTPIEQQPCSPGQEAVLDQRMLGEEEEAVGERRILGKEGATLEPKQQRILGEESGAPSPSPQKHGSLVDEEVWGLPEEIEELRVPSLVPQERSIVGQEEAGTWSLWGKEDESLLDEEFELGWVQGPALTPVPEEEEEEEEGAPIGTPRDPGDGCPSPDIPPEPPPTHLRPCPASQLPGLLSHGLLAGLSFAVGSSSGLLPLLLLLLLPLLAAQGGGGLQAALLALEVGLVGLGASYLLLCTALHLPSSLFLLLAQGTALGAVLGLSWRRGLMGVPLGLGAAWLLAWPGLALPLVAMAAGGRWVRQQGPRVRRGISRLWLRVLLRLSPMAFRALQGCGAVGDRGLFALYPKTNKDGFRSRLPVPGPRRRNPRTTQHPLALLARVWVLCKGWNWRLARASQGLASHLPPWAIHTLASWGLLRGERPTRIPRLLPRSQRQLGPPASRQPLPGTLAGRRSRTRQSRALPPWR
# Description: as §1
# [5] = KAM 0.001-10 uM, read-out: RB50 (the source's name)
structure (smiles),measurement,setting,value
N#CCc1ccc(Nc2nc(NCCCN)cc(Nc3cc(C4CC4)[nH]n3)n2)cc1 [KAM],IC50,[1]; [5],> 10 µM
same,0.001 uM KAM,[1]; relative to 0 uM KAM = 0,0.02352
same,0.01 uM KAM,[1]; relative to 0 uM KAM = 0,0.07327
same,0.1 uM KAM,[1]; relative to 0 uM KAM = 0,0.03347
same,1 uM KAM,[1]; relative to 0 uM KAM = 0,0.04428
same,10 uM KAM,[1]; relative to 0 uM KAM = 0,0.02417
same,IC50,[2]; [5],> 10 µM
same,0.001 uM KAM,[2]; relative to 0 uM KAM = 0,-0.02138
same,0.01 uM KAM,[2]; relative to 0 uM KAM = 0,-0.0113
same,0.1 uM KAM,[2]; relative to 0 uM KAM = 0,-0.01108
same,1 uM KAM,[2]; relative to 0 uM KAM = 0,0.04656
same,10 uM KAM,[2]; relative to 0 uM KAM = 0,-0.06135
same,median Log10 fold change,[3]; 0.001 uM KAM,-0.003211
same,median Log10 fold change,[3]; 0.01 uM KAM,0.02239
same,median Log10 fold change,[3]; 0.1 uM KAM,-0.07372
same,median Log10 fold change,[3]; 1 uM KAM,-0.2033
same,median Log10 fold change,[3]; 10 uM KAM,-0.3492
same,IC50,[3]; read-out: RB50 (the source's name),4.26 µM
same,IC50,[4]; [5],6.63 µM
same,0.001 uM KAM,[4]; relative to 0 uM KAM = 0,-0.0603
same,0.01 uM KAM,[4]; relative to 0 uM KAM = 0,-0.04102
same,0.1 uM KAM,[4]; relative to 0 uM KAM = 0,-0.1359
same,1 uM KAM,[4]; relative to 0 uM KAM = 0,-0.1664
same,10 uM KAM,[4]; relative to 0 uM KAM = 0,-0.2974
